The subject of data set [1] is human osteo- and soft tissue sarcoma SJCRH30 cell line. Description: Cell growth inhibition 2, SJCRH30. The note with it: 384-well plate. It is filed as cell-based.
In another data set the target is carbonic anhydrase II (Homo sapiens (Human), UniProt P00918). Description: Carbonic anhydrase II enzyme activity inhibition (4-NPA esterase activity). It is filed as biochemical.
Data set [2] deals with human acute lymphoblastic leukemia (ALL) CCRF-CEM cell lines. The data set can be described thus: Antitumor effect on tumor cells transplanted into mice 3. Particulars: CCRF-CEM xenograft in nude mice, compound hydrochlorides intravenously, Dunnett's test. It is filed as in vivo. Here is the method:
(§1) The length and the width of the implanted tumor and the body weight were measured. The tumor volume (TV) was calculated using the following equation (equation D). TV(mm3)=(length×width^2)/2, wherein the unit of length and width is mm (equation D).
(§2) Thereafter, the length and the width of the tumor and the body weight (BWn) on day n were measured over time in the same manner, and the TVn of each mouse was calculated. Further, the relative tumor volume (RTVn) was calculated based on the TVn of each mouse using the following equation (equation E); the treatment/control (T/C) value (%) was calculated based on the mean RTVn of each drug administration group using the following equation (equation F); and the weight change rate (BWCn) was calculated using the following equation (equation G). RTVn=TVn/TV1 (equation E) T/Cn(%)=(mean RTV of each drug administration group on the last day of the test)/(mean RTV of the control group on the last day of the test)×100 (equation F) BWCn (%)=(BWn−BW1)/BW1×100 (equation G) FIGS. 1 and 2, and Table 21 below show the results.
The tumor growth inhibitory effects on human tumors were evaluated as in Test Example 5, except that the compound hydrochloride obtained in Example 122, the compound hydrochloride (Example 64), and human acute lymphoblastic leukemia (ALL) CCRF-CEM cell lines were used, and the animals were assigned to each group in accordance with a stratified randomization procedure when the TV reached 140 to 380 mm3.
At this time, the cell lines were washed in PBS, and suspended in 50% PBS and 50% Matrigel basement membrane matrix (#356237; produced by BD Biosciences) at a concentration of 1×10^8 cells/mL. 0.1 mL of this cell suspension was subcutaneously implanted to the right chest of 6-week-old BALB/cAJcl-nu/nu mice (nude mice) (produced by CLEA Japan, Inc.). The compound hydrochloride (Example 122) was intravenously administered in an amount of 5 mL per 1 kg of body weight on days 1 and 8, and the compound hydrochloride (Example 133) was intravenously administered in an amount of 5 mL per 1 kg of body weight on days 1 and 8.

Data set [3] has as its system Human colon cancer HCT-116 cell lines. The data set can be described thus: Antitumor effect on tumor cells transplanted into mice 2. It is filed as in vivo.
The test system is the same in data set [4]. The data set can be described thus: Antitumor effect on tumor cells transplanted into mice 1. The note with it: for T/C15 (%): HCT-116 s.c. in BALB/cAJcl-nu/nu mice; for RTV15 comparison with the control: Dunnett's test; for BWC15 (%) Mean ± SD: body weight change. It is filed as in vivo. The procedure: Human colon cancer HCT-116 cell lines were washed in PBS and suspended at a concentration of 4×10^7 cells/mL. 0.1 mL of this cell suspension was subcutaneously implanted in the right chest of 6-week-old BALB/cAJcl-nu/nu mice (produced by CLEA Japan, Inc.).
as §1
When the TV reached 100 to 300 mm3, the animals were assigned to each group in accordance with a stratified randomization procedure. The day was considered day 1, the TV on the day was considered TV1, and the body weight on the day was considered BW1.
A required amount of the test compound was weighed to prepare an administration solution.
as §2

The subject of data set [5] is human acute lymphoblastic leukemia (ALL) CCRF-CEM cell lines. The data set can be described thus: Antitumor effect on tumor cells transplanted into mice 3. It is filed as in vivo. The note with it: CCRF-CEM xenograft in nude mice, 120 mg/kg/day intravenous.
Setting [6] is: 120 mg/kg/day intravenously on days 1, 4, 8, 11, day 15.
Setting [7] is: 50 mg/kg/day intravenously on days 1, 4, 8, 11, day 15.

As usually defined, the IC50 is the point on the concentration scale where inhibition reaches its midpoint. As to `NS(=O)(=O)OC[C@@H]1C[C@@H](n2ccc3c(N[C@H]4CCc5ccccc54)ncnc32)C[C@@H]1O` [Comparative Example, N-[(1S)-1-indanyl]-7-[(1R)-3α-hydroxy-4α-(sulfamoyloxymethyl)cyclopentyl]-7H-pyrrolo[2,3-d]pyrimidin-4-amine, reference compound], the IC50 in data set [1] is more than 10 µM; at carbonic anhydrase II (4-nitrophenyl acetate esterase activity, absorbance at 405 nm), 0.012 µM.

With `NS(=O)(=O)OC[C@@H]1C[C@@H](n2ccc3c(N[C@H]4CCc5ccccc54)ncnc32)C[C@H]1O` [Comparative Example, N-[(1S)-1-indanyl]-7-[(1R)-3α-hydroxy-4α-(sulfamoyloxymethyl)cyclopentyl]-7H-pyrrolo[2,3-d]pyrimidin-4-amine, reference compound], the “RTV comparison with the control on day 15” value in data set [2] is “significantly lower than that of the control”. The “inhibitory activity against carbonic anhydrase II” value against carbonic anhydrase II is recorded as “exhibited inhibitory activity”. The T/C15 in data set [3] (HCT-116 xenograft in mice, 120 mg/kg/day intravenous, administration days 1, 4, 8, 11, day 15) is 51%; in data set [5] (administration days 1, 4, 8, 11, day 15) it was 47%. The “RTV15 comparison with the control” value in data set [3] (HCT-116 xenograft, hydrochloride compound of Example 55, Dunnett's test) is given as “significantly lower than that of the control”; in data set [4] (HCT-116 xenograft) it was “significantly lower than that of the control”. Besides, the “BWC15 Mean ± SD” value in data set [3] (body weight change rate, HCT-116 xenograft in mice, 120 mg/kg/day intravenous, days 1, 4, 8, 11, day 15) is reported as −8.4 ± 3.2%; in data set [5] (body weight change rate, days 1, 4, 8, 11, day 15), 6.1 ± 2.6%. In addition, the “T/C15 (%)” value in data set [4] (setting [6]) worked out at 36%. Further, in data set [4] (setting [6]), the “BWC15 (%) Mean ± SD” value was −14.3 ± 5.1%.

As for `Nc1ncnc2c1c(C#Cc1c(F)cccc1F)cn2[C@@H]1O[C@H](CNS(N)(=O)=O)[C@@H](O)[C@H]1O` [Example 1, 4-Amino-5-[2-(2,6-difluorophenyl)ethynyl]-7-[(2R,3R,4S,5R)-3,4-dihydroxy-5-[(sulfamoylamino)methyl]tetrahydrofuran-2-yl]pyrrolo[2,3-d]pyrimidine], in data set [4] (setting [7]), the “T/C15 (%)” value is listed as 23% and the “BWC15 (%) Mean ± SD” value is recorded as −11.8 ± 4.7%. For the same molecule, the “change of the body weight compared with the control” value in data set [4] (HCT-116 xenograft mice) is listed as “within an acceptable degree”. For the same molecule, in data set [4] (HCT-116 xenograft, Aspin-Welch's t-test), the “RTV comparison with the Comparative Example” value is reported as “significantly lower than that of the Comparative Example”. Besides, the “RTV15 comparison with the control” value in data set [4] (HCT-116 xenograft) is listed as “significantly lower than that of the control”.
